Experimental data published in patent US20230219986A1, “NOVEL AMINOPYRIMIDINE EGFR INHIBITOR” (QILU PHARMACEUTICAL CO., LTD., priority 2020, published 2023).
Where two headings read alike, the source gives them in different places.

Assays:
[1] = molecular target: Ba/F3 De119/T790M/C797S EGFR triple mutant cell line (Homo sapiens, UniProt P00533, T790M/C797S, cells depend on it, form not given); assay: Cell proliferation inhibition experiment (CellTiter-Glo), Ba/F3 De119/T790M/C797S; assay type: cell-based; conditions: Ba/F3 Del19/T790M/C797S EGFR triple mutant cells, 72 hours, Cell Titer-Glo; read-out: Ba/F3 (Del19/T790M/C797S) IC50
Description: (§1) 3) 30 nL of gradient diluted compound was transferred into the 384-well experimental plate using Echo 550 (Labcyte) at a DMSO final concentration of 0.1%, and the culture plate was incubated in a cell incubator for 72 hours (37° C., 5% CO2).
(§2) 4) 30 μL of Cell Titer-Glo reagent was added to each well and left for 30 minutes at room temperature and protected from light.
(§3) 5) Envision microplate reader (PerkinElmer) detected chemiluminescence signals.
(§4) 6) GraphPad Prism 8 software was used for data analysis to obtain the IC50 of the compounds of the present disclosure and the positive control.

[2] = tested on: EGFR wild-type cell line A431; assay: Cell proliferation inhibition experiment (CellTiter-Glo), A431; assay type: cell-based; conditions: A431 cells, Cell Titer-Glo, read-out: A431 EGFR WT IC50
Description: A431 cells, purchased from ATCC.
1) A431 cells were inoculated in a 384-well culture plate at a density of 800 cells per well, 30 μL per well, placed in a cell incubator, and cultured for 24 hours (37° C., 5% CO2).
as §1, §2, §3, §4

[3] = molecular target: Ba/F3 L858R/T790M/C797S EGFR triple mutant cell line (Homo sapiens, UniProt P00533, T790M/C797S/L858R, cells depend on it); assay: Cell proliferation inhibition experiment (CellTiter-Glo), Ba/F3 L858R/T790M/C797S; assay type: cell-based; conditions: 72 hours, Cell Titer-Glo, read-out: Ba/F3 (L858R/T790M/C797S) IC50
Description: as §1, §2, §3, §4

[4] = molecular target: T1, L858R/T790M/C797S triple mutant EGFR (Homo sapiens, UniProt P00533, C797S/L858R/T790M); assay: Enzymology experiment in vitro (HTRF/FRET kinase activity), L858R/T790M/C797S triple mutant EGFR; assay type: biochemical; conditions: HTRF KinEASE-TK, read-out: EGFR (L858R/T790M/C797S) IC50
T1 construct: purchased Signalchem
Description: (§5) 1. Experimental Materials
(§6) HTRF KinEASE-TK kit detection reagent, purchased from Cisbio
(§7) 1) 10 nL of gradient diluted compound was transferred into a 384-well experimental plate using Echo 550 (Labcyte).
(§8) 2) 5 μL of 2×EGFR enzyme solution was added to the 384-well experimental plate and incubated at room temperature for 10 minutes.
(§9) 3) 5 μL of 2× substrate solution containing polypeptide and ATP was added to the 384-well experimental plate and incubated at room temperature for 40 minutes.
(§10) 4) 10 μL of detection solution containing EDTA, XL665-labeled streptavidin and Eu^3+-labeled antibody was added thereto and incubated at room temperature for 1 hour.

[5] = molecular target: T2, wild-type EGFR (Homo sapiens, UniProt P00533); assay: Enzymology experiment in vitro (HTRF/FRET kinase activity), wild-type EGFR; assay type: biochemical; conditions: HTRF KinEASE-TK, read-out: EGFR (WT) IC50
T2 construct: purchased Signalchem
Description: as §5, §6, §7, §8, §9, §10

T1 sequence (P00533 25-1210 T790M/C797S/L858R): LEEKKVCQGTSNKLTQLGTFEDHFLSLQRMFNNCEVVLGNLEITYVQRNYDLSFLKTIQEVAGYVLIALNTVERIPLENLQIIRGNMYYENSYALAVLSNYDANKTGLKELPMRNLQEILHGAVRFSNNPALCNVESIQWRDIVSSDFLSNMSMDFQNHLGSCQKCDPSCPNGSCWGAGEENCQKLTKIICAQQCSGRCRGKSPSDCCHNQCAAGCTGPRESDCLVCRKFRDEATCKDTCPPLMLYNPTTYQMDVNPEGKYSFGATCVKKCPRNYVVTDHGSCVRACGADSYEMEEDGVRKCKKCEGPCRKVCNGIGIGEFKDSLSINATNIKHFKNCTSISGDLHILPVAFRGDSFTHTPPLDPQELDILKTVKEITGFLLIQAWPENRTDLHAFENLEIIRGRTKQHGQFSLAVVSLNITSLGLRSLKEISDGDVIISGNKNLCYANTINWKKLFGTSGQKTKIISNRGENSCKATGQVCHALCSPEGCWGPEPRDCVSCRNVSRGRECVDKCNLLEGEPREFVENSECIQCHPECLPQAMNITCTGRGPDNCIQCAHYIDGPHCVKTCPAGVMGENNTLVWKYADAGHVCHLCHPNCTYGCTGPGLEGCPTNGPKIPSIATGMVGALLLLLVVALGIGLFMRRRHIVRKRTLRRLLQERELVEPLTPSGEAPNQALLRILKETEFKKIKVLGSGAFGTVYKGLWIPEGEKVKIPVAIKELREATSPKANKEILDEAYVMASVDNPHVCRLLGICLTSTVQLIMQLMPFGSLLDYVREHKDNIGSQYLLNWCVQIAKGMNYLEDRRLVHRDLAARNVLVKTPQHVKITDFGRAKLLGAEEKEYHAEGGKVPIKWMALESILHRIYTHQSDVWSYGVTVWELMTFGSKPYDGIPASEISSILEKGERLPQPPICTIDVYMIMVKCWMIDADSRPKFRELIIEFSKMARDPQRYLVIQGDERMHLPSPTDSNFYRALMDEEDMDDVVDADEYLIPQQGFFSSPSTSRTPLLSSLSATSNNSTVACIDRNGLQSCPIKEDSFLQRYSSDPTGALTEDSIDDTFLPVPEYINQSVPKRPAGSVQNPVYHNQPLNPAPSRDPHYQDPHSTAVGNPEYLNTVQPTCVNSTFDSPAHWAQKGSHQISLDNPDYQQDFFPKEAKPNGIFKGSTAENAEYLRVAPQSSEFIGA
T2 sequence (P00533 25-1210): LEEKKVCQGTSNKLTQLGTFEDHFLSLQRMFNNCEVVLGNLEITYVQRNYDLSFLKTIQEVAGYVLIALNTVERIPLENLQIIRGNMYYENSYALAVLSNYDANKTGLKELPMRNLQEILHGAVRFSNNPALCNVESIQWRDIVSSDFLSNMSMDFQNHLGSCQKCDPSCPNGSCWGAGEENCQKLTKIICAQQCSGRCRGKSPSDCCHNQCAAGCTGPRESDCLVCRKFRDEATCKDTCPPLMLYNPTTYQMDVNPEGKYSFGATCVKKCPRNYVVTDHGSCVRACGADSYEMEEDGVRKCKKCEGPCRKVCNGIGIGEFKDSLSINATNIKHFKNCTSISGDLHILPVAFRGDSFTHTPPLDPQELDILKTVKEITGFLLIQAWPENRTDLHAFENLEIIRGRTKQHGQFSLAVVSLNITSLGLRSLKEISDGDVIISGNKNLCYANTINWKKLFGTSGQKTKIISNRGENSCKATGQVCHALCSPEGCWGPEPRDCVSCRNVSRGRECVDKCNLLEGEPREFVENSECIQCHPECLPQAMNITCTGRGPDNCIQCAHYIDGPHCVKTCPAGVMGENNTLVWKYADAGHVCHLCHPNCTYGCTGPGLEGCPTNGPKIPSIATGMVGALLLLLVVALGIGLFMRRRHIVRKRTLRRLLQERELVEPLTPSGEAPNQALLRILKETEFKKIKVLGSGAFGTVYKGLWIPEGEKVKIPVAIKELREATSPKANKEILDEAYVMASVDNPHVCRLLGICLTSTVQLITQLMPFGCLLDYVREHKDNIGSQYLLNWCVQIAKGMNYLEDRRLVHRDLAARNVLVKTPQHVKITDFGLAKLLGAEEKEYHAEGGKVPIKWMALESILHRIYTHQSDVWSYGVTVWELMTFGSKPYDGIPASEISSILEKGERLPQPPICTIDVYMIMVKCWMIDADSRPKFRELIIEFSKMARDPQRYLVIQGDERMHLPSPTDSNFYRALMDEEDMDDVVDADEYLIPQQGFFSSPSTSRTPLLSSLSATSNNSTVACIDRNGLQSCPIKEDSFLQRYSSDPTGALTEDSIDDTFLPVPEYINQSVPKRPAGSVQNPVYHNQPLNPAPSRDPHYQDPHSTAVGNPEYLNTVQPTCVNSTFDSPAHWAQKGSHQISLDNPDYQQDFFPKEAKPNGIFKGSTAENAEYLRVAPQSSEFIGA
Sequence of Ba/F3 L858R/T790M/C797S EGFR triple mutant cell line (P00533 whole entry T790M/C797S/L858R): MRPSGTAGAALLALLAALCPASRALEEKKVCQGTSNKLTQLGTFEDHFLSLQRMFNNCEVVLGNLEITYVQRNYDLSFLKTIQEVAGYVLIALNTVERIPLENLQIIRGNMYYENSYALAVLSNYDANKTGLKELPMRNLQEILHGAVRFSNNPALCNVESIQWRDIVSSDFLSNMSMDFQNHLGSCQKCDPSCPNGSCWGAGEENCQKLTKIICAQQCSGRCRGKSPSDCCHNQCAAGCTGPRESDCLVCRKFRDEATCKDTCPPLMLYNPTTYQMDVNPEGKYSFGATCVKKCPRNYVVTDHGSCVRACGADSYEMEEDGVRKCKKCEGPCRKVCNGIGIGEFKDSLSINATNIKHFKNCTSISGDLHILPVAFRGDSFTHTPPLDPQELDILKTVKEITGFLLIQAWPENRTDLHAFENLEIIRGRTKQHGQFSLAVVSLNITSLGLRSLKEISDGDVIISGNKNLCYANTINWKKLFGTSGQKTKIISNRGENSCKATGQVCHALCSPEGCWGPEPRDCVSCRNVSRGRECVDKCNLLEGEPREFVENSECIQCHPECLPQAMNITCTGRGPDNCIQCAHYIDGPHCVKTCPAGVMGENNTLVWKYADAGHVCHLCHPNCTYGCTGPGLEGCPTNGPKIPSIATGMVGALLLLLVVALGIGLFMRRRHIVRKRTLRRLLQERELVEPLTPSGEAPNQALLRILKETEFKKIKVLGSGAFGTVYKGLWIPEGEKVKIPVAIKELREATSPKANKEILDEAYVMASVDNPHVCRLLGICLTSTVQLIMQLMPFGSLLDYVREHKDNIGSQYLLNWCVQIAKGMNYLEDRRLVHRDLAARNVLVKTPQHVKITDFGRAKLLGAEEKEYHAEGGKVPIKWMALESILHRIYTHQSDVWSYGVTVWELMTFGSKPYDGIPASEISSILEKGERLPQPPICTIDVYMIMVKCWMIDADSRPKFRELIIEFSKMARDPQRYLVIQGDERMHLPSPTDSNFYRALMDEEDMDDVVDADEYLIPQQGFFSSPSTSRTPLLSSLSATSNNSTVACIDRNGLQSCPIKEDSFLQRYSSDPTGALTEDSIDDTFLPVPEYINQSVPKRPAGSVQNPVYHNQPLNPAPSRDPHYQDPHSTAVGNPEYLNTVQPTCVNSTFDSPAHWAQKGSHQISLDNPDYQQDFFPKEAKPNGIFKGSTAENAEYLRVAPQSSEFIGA
Sequence of Ba/F3 De119/T790M/C797S EGFR triple mutant cell line (P00533 with tags, fused parts or gaps DEL746-750/T790M/C797S, form open): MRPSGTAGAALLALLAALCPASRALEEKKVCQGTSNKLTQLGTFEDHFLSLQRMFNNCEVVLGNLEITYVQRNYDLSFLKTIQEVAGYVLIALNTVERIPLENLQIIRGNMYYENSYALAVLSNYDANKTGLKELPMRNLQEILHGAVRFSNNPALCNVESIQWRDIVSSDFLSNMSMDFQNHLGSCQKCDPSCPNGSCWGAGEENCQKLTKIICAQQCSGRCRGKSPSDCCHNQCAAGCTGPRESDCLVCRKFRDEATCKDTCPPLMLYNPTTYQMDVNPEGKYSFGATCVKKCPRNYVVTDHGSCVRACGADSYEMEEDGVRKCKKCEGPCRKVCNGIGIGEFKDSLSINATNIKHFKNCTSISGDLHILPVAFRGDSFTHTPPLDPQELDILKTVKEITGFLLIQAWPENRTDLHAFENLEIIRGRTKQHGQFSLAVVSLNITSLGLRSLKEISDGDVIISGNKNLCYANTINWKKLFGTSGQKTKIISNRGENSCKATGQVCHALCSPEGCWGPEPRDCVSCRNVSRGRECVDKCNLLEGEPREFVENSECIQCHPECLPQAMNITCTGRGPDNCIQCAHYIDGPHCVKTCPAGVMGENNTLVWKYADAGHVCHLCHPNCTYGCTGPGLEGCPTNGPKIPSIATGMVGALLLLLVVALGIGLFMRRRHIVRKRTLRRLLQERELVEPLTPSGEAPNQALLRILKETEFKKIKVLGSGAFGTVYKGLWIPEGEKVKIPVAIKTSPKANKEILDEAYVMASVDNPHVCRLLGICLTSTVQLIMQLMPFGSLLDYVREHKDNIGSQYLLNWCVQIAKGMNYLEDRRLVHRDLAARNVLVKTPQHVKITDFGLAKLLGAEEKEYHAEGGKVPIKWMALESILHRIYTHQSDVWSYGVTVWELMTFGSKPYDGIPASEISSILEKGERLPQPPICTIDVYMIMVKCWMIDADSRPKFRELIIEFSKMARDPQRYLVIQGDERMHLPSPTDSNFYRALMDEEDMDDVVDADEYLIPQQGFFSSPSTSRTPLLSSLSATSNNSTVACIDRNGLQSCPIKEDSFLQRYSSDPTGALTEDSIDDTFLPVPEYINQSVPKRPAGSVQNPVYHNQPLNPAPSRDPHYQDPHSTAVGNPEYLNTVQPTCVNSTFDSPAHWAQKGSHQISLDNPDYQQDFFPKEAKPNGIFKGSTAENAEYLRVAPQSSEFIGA

Row | GI50 [1] | IC50 ([2]; Homo sapiens, A-431, 72 h) | GI50 [3] | IC50 [4] | IC50 [5] | IC50 ([2]; 72 hours) | Compound
1 | 3.68 nM | 402 nM | 13.3 nM | 0.47 nM | 15.6 nM | – | COc1cc(N2CC(C)OC(C)C2)c(-c2cnn(C)c2)cc1Nc1ncc(Br)c(Nc2ccc3nccnc3c2P(C)(C)=O)n1 (racemic) [compound 135, (6-((5-bromo-2-((4-(trans-2,6-dimethylmorpholinyl)-2-methoxy-5-(1-methyl-1H-pyrazol-4-yl)phenyl)amino))pyrimidin-4-yl)amino)quinoxalin-5-yl)dimethylphosphine oxide]
2 | 13.7 nM | 1750 nM | 57.1 nM | 5.3 nM | 99.5 nM | – | COc1cc(N2CC(C)OC(C)C2)c(-c2cnn(C)c2)cc1Nc1ncc(Br)c(Nc2cc3c(cc2P(C)(C)=O)CC3)n1 (racemic) [compound 136]
3 | 27.1 nM | – | 77.8 nM | 9.81 nM | 170 nM | 1500 nM | COc1cc(N2CC(C)OC(C)C2)c(-c2cnn(C)c2)cc1Nc1ncc(Br)c(Nc2cc3c(cc2P(C)(C)=O)CC3)n1 (racemic) [compound 137]
4 | 0.7 nM | 124 nM | 2.78 nM | 0.64 nM | 5.04 nM | – | COc1cc(N2CCC(N3CCOC(C)C3)CC2)c(-c2cnn(C)c2)cc1Nc1ncc(Br)c(Nc2ccc3nccnc3c2P(C)(C)=O)n1 (racemic) [compound 148, (6-((5-bromo-2-((2-methoxy-5-(1-methyl-1H-pyrazol-4-yl)-4-(4-(2-methylmorpholinyl)piperidin-1-yl)phenyl)amino)pyrimidin-4-yl)amino)quinoxalin-5-yl)dimethylphosphine oxide]
5 | 4.63 nM | 307 nM | 7.85 nM | 0.6 nM | 2.39 nM | – | COc1cc(N2CCC(N3CC(C)OC(C)C3)CC2)c(-c2cnn(C)c2)cc1Nc1ncc(Br)c(Nc2ccc3nccnc3c2P(C)(C)=O)n1 (racemic) [compound 174]
6 | 0.94 nM | 60.5 nM | 3.29 nM | 0.95 nM | 3.87 nM | – | COc1cc(N2CCC3(CC2)CN(C)CC(C)O3)c(-c2cnn(C)c2)cc1Nc1ncc(Br)c(Nc2ccc3nccnc3c2P(C)(C)=O)n1 (racemic) [compound 217, (6-((5-Bromo-2-((4-(2,4-dimethyl-1-oxa-4,9-diazaspiro[5.5]undecan-9-yl)-2-methoxy-5-(1-methyl-1H-pyrazol-4-yl)phenyl)amino)pyrimidin-4-yl)amino)quinoxalin-5-yl)dimethylphosphine oxide]
7 | 2.41 nM | 26.2 nM | 2.79 nM | 0.09 nM | 1.37 nM | – | COc1cc(N2CCC3C(C2)CN3C)c(-c2cnn(C)c2)cc1Nc1ncc(Br)c(Nc2ccc3nccnc3c2P(C)(C)=O)n1 (racemic) [compound 221]
8 | 2.88 nM | 76.9 nM | 3.56 nM | 0.17 nM | 7 nM | – | COc1cc(N2CCC(N3CC(F)C3)C2)c(-c2cnn(C)c2)cc1Nc1ncc(Br)c(Nc2ccc3nccnc3c2P(C)(C)=O)n1 (racemic) [compound 223, (6-((5-Bromo-2-((4-(3-(3-fluoroazetidin-1-yl)pyrrolidin-1-yl)-2-methoxy-5-(1-methyl-1H-pyrazol-4-yl)phenyl)amino)pyrimidin-4-yl)amino)quinoxalin-5-yl)dimethylphosphine oxide]
9 | 2.22 nM | 120 nM | 3.7 nM | 0.74 nM | 6.92 nM | – | COc1cc(N2CCC3(CC2)CO[C@@H](C)[C@@H]3N(C)C)c(-c2cnn(C)c2)cc1Nc1ncc(Br)c(Nc2ccc3nccnc3c2P(C)(C)=O)n1 (stereo in doubt) [compound 201]
10 | 62.2 nM | 294 nM | – | 3.6 nM | 87 nM | – | COc1cnc(-c2cnn(C)c2)cc1Nc1ncc(C)c(Nc2ccc3nccnc3c2P(C)(C)=O)n1 [compound 53]

More lines, now with the values behind:

Row | Compound | GI50 [1] | IC50 ([2]; Homo sapiens, A-431, 72 h) | GI50 [3] | IC50 [4] | IC50 [5] | IC50 ([2]; 72 hours)
11 | COc1cc(N2CC(C)OC(C)C2)c(-c2cnn(C)c2)cc1Nc1ncc(Br)c(Nc2ccc3nccnc3c2P(C)(C)=O)n1 (single isomer, unassigned) [155a] | 2.98 nM | 320 nM | 15.6 nM | 0.67 nM | 27.7 nM | –
12 | COc1cc(N2CC(C)OC(C)C2)c(-c2cnn(C)c2)cc1Nc1ncc(Br)c(Nc2ccc3nccnc3c2P(C)(C)=O)n1 (single isomer, unassigned) [155b] | 1.63 nM | – | 7.55 nM | 0.8 nM | 21.6 nM | 213 nM
13 | COc1cc(N2CCC3CCN(CC4CC4)C3C2)c(-c2cnn(C)c2)cc1Nc1ncc(Br)c(Nc2ccc3nccnc3c2P(C)(C)=O)n1 (single isomer, unassigned) [234a] | 2.05 nM | 42.4 nM | 3.91 nM | 0.32 nM | 5.04 nM | –
14 | COc1cc(N2CC[C@@H]3CCN(CC4CC4)[C@@H]3C2)c(-c2cnn(C)c2)cc1Nc1ncc(Br)c(Nc2ccc3nccnc3c2P(C)(C)=O)n1 (single isomer, unassigned) [234b] | 2.52 nM | 38.4 nM | 5.65 nM | 0.37 nM | 5.44 nM | –
15 | COc1cc(N2CCOCC2)c(-c2cnn(C)c2)cc1Nc1ncc(Br)c(Nc2ccc3nccnc3c2P(C)(C)=O)n1 [Compound 1, (6-((5-bromo-2-((2-methoxy-5-(1-methyl-1H-pyrazol-4-yl)-4-morpholinophenyl)amino)pyrimidin-4-yl)amino)quinoxalin-5-yl)-dimethylphosphine oxide] | 0.58 nM | 137 nM | 5.61 nM | 0.12 nM | 0.94 nM | –
16 | COc1cc(N2CCOCC2)c(-c2cnn(C)c2)cc1Nc1ncc(Br)c(Nc2ccccc2P(C)(C)=O)n1 [Compound 2, (2-((5-bromo-2-((2-methoxy-5-(1-methyl-1H-pyrazol-4-yl)-4-morpholinylphenyl)amino)pyrimidin-4-yl)amino)phenyl)dimethylphosphine oxide] | 4.21 nM | 316 nM | 17.5 nM | 0.09 nM | 18 nM | –
17 | COc1cc(N2CCN(C)CC2)c(-c2cnn(C)c2)cc1Nc1ncc(Br)c(Nc2ccc3nccnc3c2P(C)(C)=O)n1 [Compound 6] | 1.99 nM | 24.5 nM | 5.96 nM | < 0.05 nM | 0.17 nM | –
18 | COc1nc(N2CCOCC2)c(-c2cnn(C)c2)cc1Nc1ncc(Br)c(Nc2ccc3nccnc3c2P(C)(C)=O)n1 [Compound 7, (6-((5-bromo-2-((2-methoxy-5-(1-methyl-1H-pyrazol-4-yl)-6-morpholinylpyridin-3-yl)amino)pyrimidin-4-yl)amino)quinoxalin-5-yl)dimethylphosphine oxide] | 4.43 nM | 159 nM | 14.8 nM | 0.23 nM | 9.88 nM | –
19 | COc1cc(N2CCOCC2)c(-c2cnn(S(=O)(=O)C3CC3)c2)cc1Nc1ncc(Br)c(Nc2ccc3nccnc3c2P(C)(C)=O)n1 [Compound 8, (6-((5-bromo-2-((5-(1-(cyclopropylsulfonyl)-1H-pyrazol-4-yl)-2-methoxy-4-morpholinylphenyl)amino)pyrimidin-4-yl)amino)quinoxalin-5-yl)dimethylphosphine oxide] | 69 nM | 769 nM | 137 nM | 3.19 nM | 358 nM | –
20 | COc1cc(N2CCOCC2)c(-c2cnn(C)c2)cc1Nc1ncc(C#N)c(Nc2ccc3nccnc3c2P(C)(C)=O)n1 [Compound 13, 4-((5-(dimethylphosphoryl)quinoxalin-6-yl)amino)-2-((2-methoxy-5-(1-methyl-1H-pyrazol-4-yl)-4-morpholinylphenyl)amino)pyrimidine-5-carbonitrile] | 43.4 nM | 398 nM | 84.3 nM | 0.89 nM | 7.62 nM | –
21 | Cn1cc(-c2cc(Nc3ncc(Br)c(Nc4ccc5nccnc5c4P(C)(C)=O)n3)c3c(c2N2CCOCC2)CCCO3)cn1 [compound 51] | – | 292 nM | 36.8 nM | 0.11 nM | 111 nM | –
